By pIC50 is commonly meant the IC50 on a negative log10 scale, so that one unit is a factor of ten. As usually defined, the pKi is −log10 of the Ki, conventionally taken in molar units.

pIC50, pKi: −log10 of the molar value.
Further: in other assays of this panel Not Active means under 50% inhibition at 10 µM.

Sequence of Mitogen-activated protein kinase 14 (Q16539 whole entry): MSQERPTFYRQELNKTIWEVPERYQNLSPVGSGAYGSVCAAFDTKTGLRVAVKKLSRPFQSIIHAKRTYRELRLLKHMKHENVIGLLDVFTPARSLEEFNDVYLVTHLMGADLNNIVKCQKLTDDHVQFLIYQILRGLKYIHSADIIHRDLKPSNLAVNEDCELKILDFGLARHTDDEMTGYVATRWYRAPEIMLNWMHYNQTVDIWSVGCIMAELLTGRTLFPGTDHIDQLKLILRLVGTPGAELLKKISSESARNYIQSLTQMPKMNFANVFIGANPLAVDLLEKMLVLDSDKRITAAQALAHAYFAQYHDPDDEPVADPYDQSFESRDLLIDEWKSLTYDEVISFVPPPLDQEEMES
Sequence of Tyrosine-protein kinase Fyn (P06241 whole entry): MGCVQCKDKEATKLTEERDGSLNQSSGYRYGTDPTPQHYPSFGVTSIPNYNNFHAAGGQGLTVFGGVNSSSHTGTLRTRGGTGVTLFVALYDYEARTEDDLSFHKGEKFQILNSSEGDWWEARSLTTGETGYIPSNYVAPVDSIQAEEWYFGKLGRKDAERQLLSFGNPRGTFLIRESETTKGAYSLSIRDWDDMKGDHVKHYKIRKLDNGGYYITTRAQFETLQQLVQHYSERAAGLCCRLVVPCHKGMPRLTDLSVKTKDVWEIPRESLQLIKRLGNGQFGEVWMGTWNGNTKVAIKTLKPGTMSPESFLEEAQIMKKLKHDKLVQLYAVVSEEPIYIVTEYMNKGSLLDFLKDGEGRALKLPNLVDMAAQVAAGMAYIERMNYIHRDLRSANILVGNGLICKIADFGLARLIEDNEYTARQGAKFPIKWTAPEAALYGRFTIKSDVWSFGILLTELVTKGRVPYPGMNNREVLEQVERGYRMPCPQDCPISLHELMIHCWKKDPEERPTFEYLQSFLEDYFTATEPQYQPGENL

The target of the first series is Melanocortin receptor 5 (Homo sapiens, UniProt P33032).
Sequence of Melanocortin receptor 5 (P33032 whole entry): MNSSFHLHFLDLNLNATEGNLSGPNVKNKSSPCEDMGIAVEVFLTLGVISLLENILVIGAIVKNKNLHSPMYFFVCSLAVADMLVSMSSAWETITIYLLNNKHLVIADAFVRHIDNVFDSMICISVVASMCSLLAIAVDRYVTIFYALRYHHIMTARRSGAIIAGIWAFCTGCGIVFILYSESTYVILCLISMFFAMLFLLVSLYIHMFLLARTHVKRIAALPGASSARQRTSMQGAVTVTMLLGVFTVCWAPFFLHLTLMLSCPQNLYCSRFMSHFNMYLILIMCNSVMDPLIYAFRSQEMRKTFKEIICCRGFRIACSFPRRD
Experiment: not given
It counts as cell membranes, HEK293, Membrane. The conditions noted are these: hek293.
As to GADOPENTETATE DIMEGLUMINE, the IC50 result is “Not Active” and the Ki result is “Not Active”.
With GENTAMICIN, the IC50 entry is “Not Active” and the Ki result is “Not Active”.
For the sequence NYSTATIN, the IC50 result is “Not Active” and the Ki entry is “Not Active”.

The same series, now with this note: hek293; read-out: IC50.
Consider GRAMICIDIN, for which the negative logarithm of the IC50 (pIC50) is 5.70.

The series is the same for the next values; noted with them: hek293; read-out: Ki.
Consider GRAMICIDIN, for which the pKi was 5.72.

The next series concerns the target Mitogen-activated protein kinase 14 (Homo sapiens, UniProt Q16539).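 Further: inhibition of p38alpha enzyme activity in a biochemical kinase assay, with myelin basic protein serving as substrate.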
Experiment: not given
Details: species or system Escherichia coli.
Conditions: not given
GADOPENTETATE DIMEGLUMINE: the IC50 entry was “Not Active” and the Ki result is on record as “Not Active”.
For GENTAMICIN, the IC50 result is “Not Active” and the Ki result was “Not Active”.
As for GRAMICIDIN, the IC50 entry is on record as “Not Active” and the Ki result is given as “Not Active”.
Consider NYSTATIN, for which the IC50 result is “Not Active” and the Ki entry is “Not Active”.

The target of another series is T1, Calcitonin receptor (Homo sapiens, UniProt P30988).
T1 sequence (P30988 whole entry): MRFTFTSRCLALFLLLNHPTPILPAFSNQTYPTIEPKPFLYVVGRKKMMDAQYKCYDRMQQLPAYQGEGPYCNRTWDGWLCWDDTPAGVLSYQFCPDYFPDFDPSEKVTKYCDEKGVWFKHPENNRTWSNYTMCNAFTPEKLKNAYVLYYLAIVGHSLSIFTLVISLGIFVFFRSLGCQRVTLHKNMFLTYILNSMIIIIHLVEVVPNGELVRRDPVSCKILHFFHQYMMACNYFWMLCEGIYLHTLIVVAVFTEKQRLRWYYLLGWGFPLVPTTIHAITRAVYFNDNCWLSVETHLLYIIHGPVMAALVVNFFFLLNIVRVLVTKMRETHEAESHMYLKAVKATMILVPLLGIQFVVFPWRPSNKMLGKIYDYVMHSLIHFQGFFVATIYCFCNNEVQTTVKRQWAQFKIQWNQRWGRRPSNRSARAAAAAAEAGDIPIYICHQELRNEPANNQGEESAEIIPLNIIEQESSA
Experiment: not given
It counts as cell membranes, Membrane. The conditions noted are these: t47d.
In the case of GADOPENTETATE DIMEGLUMINE, the IC50 result was “Not Active” and the Ki result is “Not Active”.
Regarding GENTAMICIN, the IC50 entry is recorded as “Not Active” and the Ki entry is on record as “Not Active”.
As for GRAMICIDIN, the IC50 entry was “Not Active” and the Ki result was “Not Active”.
As to NYSTATIN, the IC50 result is recorded as “Not Active” and the Ki result is “Not Active”.

In the next series the target is T2, Receptor-type tyrosine-protein phosphatase C (Homo sapiens, UniProt P08575).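 Further: inhibition of CD45 enzyme activity measured using DiFMUP as substrate.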
T2 sequence (P08575 whole entry): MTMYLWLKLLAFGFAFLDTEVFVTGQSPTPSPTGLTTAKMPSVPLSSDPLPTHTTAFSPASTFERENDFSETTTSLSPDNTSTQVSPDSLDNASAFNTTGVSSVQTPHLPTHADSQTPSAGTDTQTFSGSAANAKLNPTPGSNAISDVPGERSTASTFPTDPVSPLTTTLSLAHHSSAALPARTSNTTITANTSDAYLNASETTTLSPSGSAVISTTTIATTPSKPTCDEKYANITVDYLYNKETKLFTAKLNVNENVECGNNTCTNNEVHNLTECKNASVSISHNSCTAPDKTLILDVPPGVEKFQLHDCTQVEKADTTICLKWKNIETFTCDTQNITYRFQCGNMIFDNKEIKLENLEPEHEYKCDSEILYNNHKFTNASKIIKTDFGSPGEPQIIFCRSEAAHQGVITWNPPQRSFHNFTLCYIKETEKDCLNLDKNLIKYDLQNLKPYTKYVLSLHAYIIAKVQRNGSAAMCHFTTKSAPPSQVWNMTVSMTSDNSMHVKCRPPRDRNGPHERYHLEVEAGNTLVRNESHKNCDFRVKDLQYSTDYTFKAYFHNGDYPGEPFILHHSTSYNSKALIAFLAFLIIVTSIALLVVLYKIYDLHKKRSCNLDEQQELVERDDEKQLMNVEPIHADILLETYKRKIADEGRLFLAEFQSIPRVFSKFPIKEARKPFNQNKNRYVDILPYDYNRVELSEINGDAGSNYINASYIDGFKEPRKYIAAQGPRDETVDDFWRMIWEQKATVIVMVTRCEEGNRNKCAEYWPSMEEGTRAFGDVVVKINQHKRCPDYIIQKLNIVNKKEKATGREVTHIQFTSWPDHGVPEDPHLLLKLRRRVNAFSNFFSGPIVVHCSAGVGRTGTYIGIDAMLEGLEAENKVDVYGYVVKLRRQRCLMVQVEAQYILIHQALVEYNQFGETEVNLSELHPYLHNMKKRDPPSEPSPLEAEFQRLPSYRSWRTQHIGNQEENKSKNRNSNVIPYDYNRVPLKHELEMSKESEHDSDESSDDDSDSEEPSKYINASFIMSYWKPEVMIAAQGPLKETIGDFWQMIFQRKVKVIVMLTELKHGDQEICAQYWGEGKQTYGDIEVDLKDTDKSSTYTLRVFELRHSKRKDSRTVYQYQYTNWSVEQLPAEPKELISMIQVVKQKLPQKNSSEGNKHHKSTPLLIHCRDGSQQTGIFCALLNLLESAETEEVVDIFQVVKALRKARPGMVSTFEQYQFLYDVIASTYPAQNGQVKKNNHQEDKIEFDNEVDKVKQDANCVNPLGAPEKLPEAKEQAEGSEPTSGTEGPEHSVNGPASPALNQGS
Experiment: not given
Details: species or system Escherichia coli.
Conditions: not given
For GADOPENTETATE DIMEGLUMINE, the IC50 result is recorded as “Not Active” and the Ki entry is reported as “Not Active”.
With GENTAMICIN, the IC50 result was “Not Active” and the Ki result is recorded as “Not Active”.
In the case of GRAMICIDIN, the IC50 result is “Not Active” and the Ki entry is recorded as “Not Active”.
Take NYSTATIN: the IC50 result is “Not Active” and the Ki entry is given as “Not Active”.

The target of the next series is Voltage-gated inwardly rectifying potassium channel KCNH2 (Homo sapiens, UniProt Q12809).
Sequence of Voltage-gated inwardly rectifying potassium channel KCNH2 (Q12809 whole entry): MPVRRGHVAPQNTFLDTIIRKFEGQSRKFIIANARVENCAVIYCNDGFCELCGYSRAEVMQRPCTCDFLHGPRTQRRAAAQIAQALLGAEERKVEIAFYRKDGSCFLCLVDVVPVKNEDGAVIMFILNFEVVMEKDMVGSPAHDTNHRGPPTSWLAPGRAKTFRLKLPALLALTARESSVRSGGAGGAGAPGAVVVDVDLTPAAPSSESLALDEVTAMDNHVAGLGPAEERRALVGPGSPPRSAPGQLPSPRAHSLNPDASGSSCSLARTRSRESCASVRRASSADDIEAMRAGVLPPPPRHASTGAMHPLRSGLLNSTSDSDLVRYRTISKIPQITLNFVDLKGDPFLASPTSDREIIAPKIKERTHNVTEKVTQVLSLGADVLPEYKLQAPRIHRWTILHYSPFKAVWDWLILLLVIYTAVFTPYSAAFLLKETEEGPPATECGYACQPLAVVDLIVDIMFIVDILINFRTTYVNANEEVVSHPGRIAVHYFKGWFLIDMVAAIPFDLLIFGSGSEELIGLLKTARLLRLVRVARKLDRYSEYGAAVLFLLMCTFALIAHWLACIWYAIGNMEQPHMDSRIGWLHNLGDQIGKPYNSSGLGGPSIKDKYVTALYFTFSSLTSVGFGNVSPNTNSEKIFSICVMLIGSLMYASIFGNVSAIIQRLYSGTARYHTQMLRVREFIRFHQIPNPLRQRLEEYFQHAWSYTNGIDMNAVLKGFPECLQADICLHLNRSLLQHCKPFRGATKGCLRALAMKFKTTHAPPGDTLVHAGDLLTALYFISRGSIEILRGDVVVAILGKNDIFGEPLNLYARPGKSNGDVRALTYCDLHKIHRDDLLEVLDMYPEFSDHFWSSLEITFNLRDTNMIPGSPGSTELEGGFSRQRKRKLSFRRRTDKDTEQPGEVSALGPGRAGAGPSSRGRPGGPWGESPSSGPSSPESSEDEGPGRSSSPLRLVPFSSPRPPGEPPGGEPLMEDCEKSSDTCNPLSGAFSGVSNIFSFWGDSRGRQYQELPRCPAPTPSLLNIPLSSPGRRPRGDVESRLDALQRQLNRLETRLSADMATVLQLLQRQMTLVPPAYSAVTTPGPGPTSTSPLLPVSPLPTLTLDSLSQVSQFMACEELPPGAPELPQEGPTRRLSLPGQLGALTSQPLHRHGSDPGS
Experiment: not given
The conditions noted are these: hek293.
For GADOPENTETATE DIMEGLUMINE, the IC50 entry is recorded as “Not Active” and the Ki result is on record as “Not Active”.
In the case of GENTAMICIN, the IC50 result is listed as “Not Active” and the Ki entry is listed as “Not Active”.
Take GRAMICIDIN: the IC50 entry is given as “Not Active” and the Ki entry is “Not Active”.
Take NYSTATIN: the IC50 entry was “Not Active” and the Ki entry is “Not Active”.

The next series concerns the target Tyrosine-protein kinase Fyn (Homo sapiens, UniProt P06241). Kind of series: biochemical. It counts as cell-based, Insect cells. The conditions noted are these: insect cells.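 Further: enzymatic inhibition of Fyn kinase activity measured with Poly(Glu:Tyr) as the phosphorylation substrate.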
Regarding GADOPENTETATE DIMEGLUMINE, the IC50 result was “Not Active” and the Ki result is “Not Active”.
For GENTAMICIN, the IC50 entry was “Not Active” and the Ki entry is on record as “Not Active”.
As for NYSTATIN, the IC50 entry was “Not Active” and the Ki result is recorded as “Not Active”.

The series is the same for the next values; noted with them: insect cells; read-out: IC50.
In the case of GRAMICIDIN, the pIC50 is 5.48.

Source of the values: ChEMBL document CHEMBL1909046, “DrugMatrix in vitro pharmacology data”.
